From patent US9745257B2, “Phenyl-guanidine derivatives” (Universidad Nacional de Quilmes, priority 2011, dated 2017)
Where two headings read alike, the source gives them in different places.

Experiments:
[1] = tested on: LN229 (human glioblastoma); assay: Proliferation assay (MTT), LN229 cells; type: cell-based; conditions: LN-229, 72 h, 10% FBS
Experimental: (§1) Cells were maintained in monolayer culture with the corresponding media, supplemented with 5% fetal bovine serum (FBS) previously inactivated with heat, 2 mM glutamine and […] gentamicine.
(§2) The cells were treated for 72 hours in the presence of FBS 10% with different doses of the compounds in 96 wells at a 2500 cell/well density. The cell growth was estimated by MTT test, for which to the cell monolayers was added MTT, incubated and resuspended in DMSO. Finally, the number of cells was estimated by measuring the absorbance values at 570 nm.
(§3) Compound (65) as a representative example of Rac1 inhibitor compounds according to the present invention was tested in cell proliferation assays performed with following cancer cell lines F3II (murine mammary carcinoma), 3LL (murine lung carcinoma), LN229 (human glioblastoma), MCF7 (human mammary carcinoma), H125 (human lung carcinoma), PC3 (human prostate adenocarcinoma) and MDA-MB-231 (human mammary carcinoma).
as §2, with “trated” for “treated”

[2] = molecular target: T1, Rac1 (Homo sapiens, UniProt P63000); assay: Pull-Down assay of intracellular active Rac levels (Rac-GTP) in LN229 cells; type: cell-based; conditions: 10 μM, EGF 100 ng/ml, FIG. 3
T1 construct: endogenous in cells; host or cells: LN229 (human glioblastoma)
Experimental: This assay consists in the determination of inhibition power of the compounds of the invention over the intracellular active Rac1 levels (Rac-GTP). For determining the levels of Rac-GTP, the “Pull-Down” assay was used, which is based in the conformation bond of Rac-GTP to the p21 domain of PAK1 protein, which is the direct effector of Rac-GTP (Wanf H. et al.; J. Biol. Che. 2002, 277: 4541-4550).
LN229 cells (human glioblastoma) were seeded in 6-well cell culture plaques and were kept in absence of FBS for 48 hours (starvation). Afterwards, they were treated with compounds (25) and (65) and they were stimulated for 15 minutes with EGF (100 ng/ml), washed with phosphate buffered saline (PBS) at low temperature and lysated in a buffer containing 8 μg of the fusion protein GST-PBD, […] Tris-HCl, pH 7.5, […] DTT, 5 mM MgCl2, 150 mM NaCl, 0.5% NP-40, 5 mM β-glicerophosphate and protease inhibitors (5 μg/ml 4-(2-aminoethyl)bencenesulfonyl fluoride, 5 μg (ml leupeptin, 5 μg/ml aprotinin and 1 μg/ml pepstatin A). The lysates were centrifuged at 14,000×g (4° C., 10 min) and then incubated with Glutation-Agarose Beads (GAB, Amersham Pharmacia) previously fitted with GST-Pak at 4° C. for 1 hour. After washing, the GABs were boiled for 5 minutes in loading buffer. […] The total Rac levels were analyzed in a similar way from aliquots taken from the cell lysate.

[3] = tested on: F3II mammary carcinoma cells; assay: Antimetastatic effect, metastatic lung colonization by F3II cells in mice; type: in vivo; conditions: 25 mg/kg/day i.p., days 0 to 21, F3II cells i.v., BALB/c mice, FIG. 9
Experimental: Specific pathogen-free female BALB/c inbred mice from UNLP (Buenos Aires, Argentina), with an age of 8-10 weeks and a average weight of 20 g, were used. They were housed in plastic cages under standard conditions and had access to rodent chow and water ad libitum. On the designated day 0 of the experiment, F3II mammary carcinoma cells were injected into the lateral tail vein of unanesthetized mice at a concentration of 2×10^5 viable cells/0.3 ml DMEM/mice. At day 21, animals were sacrificed by cervical dislocation and necropsied. To investigate the presence of lung metastasis, lungs were removed, fixed in Bouin's solution and the number of surface nodules was determined under a dissecting microscope.
(§4) To study the effect of compound (25) on metastatic lung colonization, mice were injected i.p at daily doses of 25 mg/kg body weight from days 0 to 21.

[4] = tested on: F3II (murine mammary carcinoma); assay: Proliferation assay (MTT), F3II cells; type: cell-based; conditions: Mus musculus, 72 h, 10% FBS
Experimental: as §1, §2, §3

[5] = Tolerability and animal weight in mice; type: in vivo; conditions: adult female BALB/c mice, 25 mg/kg/day i.p.
Experimental: as §4

[6] = tested on: MDA-MB-231 (human mammary carcinoma); assay: Proliferation assay (MTT), MDA-MB-231 cells; type: cell-based; conditions: 72 h, 10% FBS
Experimental: as §1, §2, §3

[7] = tested on: 3LL (murine lung carcinoma); assay: Proliferation assay (MTT), 3LL cells; type: cell-based; conditions: Mus musculus, 72 h, 10% FBS, average of three experiments
Experimental: as §1, §2, §3

[8] = tested on: MCF7 (human mammary carcinoma); assay: Proliferation assay (MTT), MCF7 cells; type: cell-based; conditions: 72 h, 10% FBS, average of three experiments
Experimental: as §1, §2, §3

[9] = tested on: LN229 cells; assay: Cell cycle effect by flow cytometry; type: cell-based, human
Experimental: The effect of compound (65) on the cell cycle was studied by flow citometry. It is known that Rac1 GTPase is related with transcription of molecules such as cyclin D1, which are required to progress from G1 phase to S phase. Inhibition of Rac1 induces cell arrest in G0-G1 phase.
LN229 cells synchronized in G0-G1 phase and stimulated for 24 hours with FBS were treated with compound (65).

[10] = tested on: PC3 (human prostate adenocarcinoma); assay: Proliferation assay (MTT), PC3 cells; type: cell-based; conditions: PC-3, 72 h, 10% FBS, average of three experiments
Experimental: as §1, §2, §3

[11] = tested on: LN229 human glioblastoma cells; assay: Trans-well migration assay; type: cell-based; conditions: 10 μM, 50 μM and 100 μM, 24 hours, FIG. 6
Experimental: Cell motility is a key process in the invasion and tumor metastasis processes and it is closely regulated by the Rho-GTPases family, particularly by Rac. This assay consists in the determination of the antimigration effect of compound (65) on LN229 human glioblastoma cells.
The cell migration in vitro was measured by the trans-well migration assay, wherein LN229 cells previously treated with different concentrations (10 μM, 50 μM and 100 μM) of compound (65) and serum deprived were placed on the upper layer of a cell permeable membrane of a trans-well plaque. Following an incubation perior of 24 hours, the cells migrated through the 8 μm pores of the membrane to the lower layer.

[12] = tested on: H125 (human lung carcinoma); assay: Proliferation assay (MTT), H125 cells; type: cell-based; conditions: NCI-H125, 72 h, 10% FBS, average of three experiments
Experimental: as §1, §2, §3

[13] = molecular target: T2, Rac-Tiam complex (Homo sapiens, UniProt P63000); assay: Precipitation affinity of Tiam with recombinant GST-Rac (Western Blot anti Tiam1); type: binding; conditions: Western Blot anti Tiam1 vs. control, FIG. 2
T2 construct: GST
Experimental: Compounds (65) and (25) were tested in order to determine its inhibition power over the interaction Rac-Tiam. Thus, the precipitation affinity of Tiam with the recombinant protein GST-Rac was evaluated in presence of compound (65).

[14] = tested on: LN229 human glioblastoma cells; assay: Polymerization of actin filaments by immunofluorescence in LN229 cells; type: cell-based; conditions: LN229 starved 24 h, treated 1 hour, EGF stimulated, FIG. 5
Experimental: The effect of compound (65) over the polymerization of actin filaments was evaluated by immunofluorescence with conjugated faloidine with the fluorochrome AlexaFluor (Invitrogen). LN229 human glioblastoma cells were starvated for 24 hours, treated with compound (65) for 1 hour, and stimulated with EGF. […] An accurate sign of cellular boundaries is observed in all cells due to the cortical actin marking.

[15] = read-out: IC50 (μM) tested in LN229 cells (Table 2)

## N=C(Nc1ccccc1)Nc1ccccc1C(F)(F)F [(27), N-phenyl-N′-[2-(trifluoromethyl)phenyl]guanidine]
other
  melting point: 108 to 109 °C
[1]; [15]
  IC50: 211 µM

## N=C(Nc1cccc([N+](=O)[O-])c1)Nc1ccccc1C(F)(F)F [(41), N-(3-nitrophenyl)-N′-[2-(trifluoromethyl)phenyl]guanidine]
[1]; [15]
  IC50: 88 µM

## Cc1ccccc1NC(=N)Nc1ccccc1C(F)(F)F [(64), N-(2-methylphenyl)-N′-[2-(trifluoromethyl)phenyl]guanidine]
other
  melting point: 129 °C
[1]; [15]
  IC50: 175 µM

## Cc1cc(C)cc(NC(=N)Nc2ccccc2C(F)(F)F)c1 [Compound (25), N-(3,5-dimethylphenyl)-N′-[2-(trifluoromethyl)phenyl]guanidine]
[2]
  Effect over the intracellular active Rac levels (Rac-GTP): inhibitory effect
[3]
  Reduction of the formation of metastatic lung colonies: about 35%
[4]; read-out: IC50 values, F3II (Table 3)
  IC50: 36 µM
[5]
  Changes in animal weight compared to the control group: no significant changes in animal weight
  Tolerability: well tolerated
[1]; [15]
  IC50: 73 µM
[6]; read-out: IC50 values, MDA-MB-231 (Table 3)
  IC50: 40 µM

## Cc1cc(C)nc(NC(=N)Nc2ccccc2C(F)(F)F)n1 [Compound (65), N-[4,6-bis(methyl)pyrimidin-2-yl]-N′-[2-(trifluoromethyl)phenyl]guanidine]
[2]
  Effect over the intracellular active Rac levels (Rac-GTP): inhibitory effect
[4]; average of three experiments, read-out: IC50 values, F3II
  IC50: 61 µM
[7]
  IC50: 68 µM
[8]
  IC50: 44 µM
[9]; 50 μM, LN229 synchronized in G0-G1, stimulated 24 hours with FBS, controls 25%
  Cell population in G0-G1 phase: 60%
[9]; LN229 cells, FIG. 7
  Cell cycle arrest: arrests tumoral cells in G0-G1 phase in a dose dependent manner
[10]
  IC50: 138 µM
[11]
  Cell migration: significantly decreased the cell migration in a dose dependent manner
[12]
  IC50: 127 µM
[1]; average of three experiments, read-out: IC50 values, LN229
  IC50: 73 µM
[13]
  Effect over Rac-Tiam complex (Rac interaction with the activator): decrease of Rac interaction with the activator
[14]
  Intracellular fibrillar actin levels: decreasing of intracellular fibrilar actin levels
[6]; average of three experiments, read-out: IC50 values, MDA-MB-231
  IC50: 48 µM
